# Source: patent US20080081039A1, “Inorganic Selenium For Treatment Of Cancer” (priority 2004, published 2008)
# Tests used:
# [1] = system: human kidney epithelial Q293 cells; experiment: Cell growth curve of Q293 cells, Trypan Blue; format: cell-based; conditions: selenate 5 μM, LY294002 10 μM, 9 days
# Method: Q293 cells are a human kidney epithelial cell line routinely cultured in DMEM media (Invitrogen) in 5% foetal calf serum and 1% antibiotic/antimycotic mixture (Invitrogen).
# Between 5×10^4 (FIGS. 1-2) and 1×10^5 LNCaP, CSS LNCaP or Q293 cells were allowed to attach overnight. […] Supernatants and cells were then harvested, combined and viable cells assessed by Trypan Blue exclusion assay. Experiments were performed in triplicate.
# [2] = system: PC-3 cells; conditions: 0.25 mM, 54 hours
# Method: BrdU Incorporation assays and immunofluorescence were carried out by plating 2.5×10^3 PC-3 cells and allowing them to attach overnight. […] Cells were incubated for a further 16 hours, then washed 3× in PBS and fixed in 4% PFA for 10 minutes at room temperature.
# Mouse monoclonal anti-BrdU and antibodies were used as the primary antibodies and anti-mouse 488 Alexa, as the secondary antibodies. The percentage of cells incorporating BrdU was determined by counting the number of green staining nuclei per number of DAPI positive cells. 100 DAPI positive cells were counted per coverslip and the experiment performed in triplicate.
smiles,measurement,setting,value
O=[Se](=O)(O)O [sodium selenate],Q293 cell proliferation,[1]; CSS media (androgen ablation),does not significantly effect
same,Q293 cell proliferation,[1]; normal serum,does not significantly effect
same,G1/S progression (BrdU/FrdU positive nuclei),[2],severely impeded
